Measurements: patent US20220257595A1, “MACITENTAN FOR USE IN TREATING PORTOPULMONARY HYPERTENSION” (ACTELION PHARMACEUTICALS LTD, priority 2019, published 2022)

System: patients with PoPH
Test: PORTICO safety: treatment-emergent AEs, SAEs, AESIs, deaths, discontinuations
Assay type: in vivo
From the text: For the evaluation of treatment-emergent safety endpoints in the DB phase, the observation period for each individual subject started at the time of the first administration of macitentan or placebo and ended with the start of OL treatment or 30 days after DB treatment discontinuation (whichever occurred first). The safety variables listed below apply to the DB treatment-emergent period and the macitentan treatment-emergent period. The DB treatment-emergent period was defined as the period from the DB treatment start date up to the EOT-DB+30 days or to the EOT-DB for patients entering OL. The macitentan treatment-emergent period was defined as the period from the first intake of macitentan up to end of macitentan treatment (EOMT)+30 days. EOMT was defined as EOT-DB (for patient who received macitentan only in the DB period) or EOT-OL when applicable. For patients entering OLE, the EOMT is EOT-OL. • Treatment-emergent AEs • Treatment-emergent deaths • Treatment-emergent serious adverse events (SAEs) • AEs leading to premature discontinuation of study treatment • Occurrence of post-baseline LFT (ALT and/or AST) abnormalities, classified as: • ≥3×ULN; • ≥5×ULN; • ≥8×ULN; • ≥3×ULN and <5×ULN; • […] and <8×ULN. • Occurrence of post-baseline ALT and/or AST abnormality 3×ULN and concomitant (i.e., at the same time) total bilirubin ≥2×ULN • Occurrence of post-baseline ALT and/or AST abnormality ≥3×ULN and concomitant (i.e., at the same time) total bilirubin ≥2×ULN and increased as compared to baseline • Occurrence of hemoglobin abnormalities, classified as: • ≤80 g/L, • >80 and ≤100 g/L, • decrease from baseline ≥20 g/L and <50 g/L, • decrease from baseline ≥50 g/L, • <100 g/L and concurrent (i.e., at the same time) decrease from baseline ≥20 g/L. • Other treatment-emergent marked laboratory abnormalities • Change from baseline/macitentan baseline to EOT-DB/EOMT in vital signs • Change from baseline/macitentan baseline to EOT-DB/EOMT in laboratory variables • Change from baseline/macitentan baseline to EOT-DB/EOMT in Child-Pugh classification • Change from baseline/macitentan baseline to EOT-DB/EOMT in MELD score
(i) Adverse events: All AEs occurring after study start (i.e., signing of informed consent) and up to 30 days after study treatment discontinuation were required to be recorded. AEs still ongoing more than 30 days after study treatment discontinuation were required to be followed up until they were no longer considered clinically relevant.
(ii) Serious adverse events, including associated with study design or protocol-mandated procedures: During the screening period, all SAEs occurring after study start (i.e., signing of informed consent) were required to be recorded (whether considered associated or not associated to study design or study-mandated procedures). All SAEs, regardless of investigator-attributed causal relationship, occurring during the treatment period up to the end of the 30-day follow up period, were required to be reported. SAEs still ongoing at the EOS visit were required to be followed up until resolution or stabilization, or until the event outcome was provided, e.g., death. New SAEs occurring after the 30-day follow-up period were required to be reported within 24 hours.
In addition, the following adverse events of special interest (AESIs) were analyzed: • “Edema and fluid retention”
Any treatment-emergent AE with PT listed in the Standardised MedDRA Query (SMQ) “Haemodynamic oedema, effusions and fluid overload (SMQ)” or with PT equal to “Pulmonary congestion” defined in the latest available MedDRA version, with the exception of PTs containing “site”. • “Anemia”

[1] = DB phase, Safety set, 10 mg, N = 43
[2] = DB phase, macitentan group (6 patients)
[3] = DB phase, macitentan group, 7 patients
[4] = OL phase, Macitentan treated set, N = 84
[5] = macitentan DB + OL phase, Macitentan treated set, N = 84

In the case of `CCCNS(=O)(=O)Nc1ncnc(OCCOc2ncc(Br)cn2)c1-c1ccc(Br)cc1` [macitentan, N-[5-(4-Bromophenyl)-6-[2-[(5-bromo-2-pyrimidinyl)oxy]ethoxy]-4-pyrimidinyl]-N′-propylsulfamide], the “AEs that occurred more frequently than in the placebo group” value (DB phase) is reported as “peripheral edema/peripheral swelling, bronchitis and decreased hemoglobin/anemia”, the Deaths (DB phase) is reported as “no deaths” and the “AE leading to premature discontinuation of study treatment, Alveolitis” value [1] is reported as 1 (2.3) n (%). The “AE leading to premature discontinuation of study treatment, Anaemia” value [1] was 1 (2.3) n (%), the “AE leading to premature discontinuation of study treatment, Hypersensitivity” value [1] was 1 (2.3) n (%) and the “AE leading to premature discontinuation of study treatment, Pulmonary arterial hypertension” value [1] was 1 (2.3) n (%). The “AE of special interest Anemia, Pancytopenia” value [1] was 0 n (%), the “AE of special interest Hepatic disorders, Blood bilirubin increased” value [1] was 0 n (%) and the “AE of special interest Hepatic disorders, Gamma-glutamyltransferase increased” value [1] was 0 n (%). For the same molecule, the “Subjects with at least one AE” value [1] was 36 (83.7) n (%), the “Subjects with at least one AE leading to study drug discontinuation” value [1] was 4 (9.3) n (%) and the “Subjects with at least one Drug-Related AE” value [1] was 19 (44.2) n (%). The “Subjects with at least one Drug-Related serious AE” value [1] was 5 (11.6) n (%), the “Subjects with at least one Fatal serious AE” value [1] was 0 n (%) and the “Subjects with at least one Serious AE” value [1] was 9 (20.9) n (%). The “Subjects with at least one Severe AE” value [1] was 7 (16.3) n (%), the “Treatment-emergent AE, Abdominal pain” value [1] was 2 (4.7) n (%) and the “Treatment-emergent AE, Acute kidney injury” value [1] was 2 (4.7) n (%). For the same molecule, the “Treatment-emergent AE, Back pain” value [1] was 2 (4.7) n (%), the “Treatment-emergent AE, Bronchitis” value [1] was 4 (9.3) n (%) and the “Treatment-emergent AE, Cough” value [1] was 0 n (%). For the same molecule, the “Treatment-emergent AE, Diarrhoea” value [1] was 1 (2.3) n (%), the “Treatment-emergent AE, Dizziness” value [1] was 2 (4.7) n (%) and the “Treatment-emergent AE, Dry mouth” value [1] was 1 (2.3) n (%). For the same molecule, the “Treatment-emergent AE, Dyspnoea” value [1] was 1 (2.3) n (%), the “Treatment-emergent AE, Fall” value [1] was 2 (4.7) n (%) and the “Treatment-emergent AE, Foot fracture” value [1] was 1 (2.3) n (%). For the same molecule, the “Treatment-emergent AE, Headache” value [1] was 7 (16.3) n (%), the “Treatment-emergent AE, Hypokalaemia” value [1] was 2 (4.7) n (%) and the “Treatment-emergent AE, Hypotension” value [1] was 2 (4.7) n (%). For the same molecule, the “Treatment-emergent AE, Muscle spasms” value [1] was 0 n (%), the “Treatment-emergent AE, Nausea” value [1] was 1 (2.3) n (%) and the “Treatment-emergent AE, Pain in extremity” value [1] was 2 (4.7) n (%). For the same molecule, the “Treatment-emergent AE, Presyncope” value [1] was 2 (4.7) n (%), the “Treatment-emergent AE, Rhinitis” value [1] was 2 (4.7) n (%) and the “Treatment-emergent AE, Right ventricular failure” value [1] was 3 (7.0) n (%). For the same molecule, the “Treatment-emergent AE, Tachycardia” value [1] was 2 (4.7) n (%), the “Treatment-emergent AE, Urinary tract infection” value [1] was 2 (4.7) n (%) and the “Treatment-emergent AE, Viral upper respiratory tract infection” value [1] was 2 (4.7) n (%). The “Treatment-emergent SAE, Acute kidney injury” value [1] was 1 (2.3) n (%), the “Treatment-emergent SAE, Alveolitis” value [1] was 1 (2.3) n (%) and the “Treatment-emergent SAE, Aneurysm repair” value [1] was 0 n (%). The “Treatment-emergent SAE, Ascites” value [1] was 1 (2.3) n (%), the “Treatment-emergent SAE, Asthma” value [1] was 1 (2.3) n (%) and the “Treatment-emergent SAE, Atrial fibrillation” value [1] was 1 (2.3) n (%). For the same molecule, the “Treatment-emergent SAE, Fluid overload” value [1] was 1 (2.3) n (%), the “Treatment-emergent SAE, Haemoptysis” value [1] was 1 (2.3) n (%) and the “Treatment-emergent SAE, Hepatic encephalopathy” value [1] was 1 (2.3) n (%). For the same molecule, the “Treatment-emergent SAE, Hepatocellular carcinoma” value [1] was 1 (2.3) n (%), the “Treatment-emergent SAE, Hypersensitivity” value [1] was 1 (2.3) n (%) and the “Treatment-emergent SAE, Ileus” value [1] was 1 (2.3) n (%). For the same molecule, the “Treatment-emergent SAE, Left ventricular failure” value [1] was 1 (2.3) n (%), the “Treatment-emergent SAE, Localised infection” value [1] was 0 n (%) and the “Treatment-emergent SAE, Localised oedema” value [1] was 1 (2.3) n (%). The “Treatment-emergent SAE, Lung infection” value [1] was 1 (2.3) n (%), the “Treatment-emergent SAE, Oedema peripheral” value [1] was 1 (2.3) n (%) and the “Treatment-emergent SAE, Presyncope” value [1] was 1 (2.3) n (%). The “Treatment-emergent SAE, Pulmonary arterial hypertension” value [1] was 1 (2.3) n (%), the “Treatment-emergent SAE, Pulmonary toxicity” value [1] was 1 (2.3) n (%) and the “Treatment-emergent SAE, Right ventricular failure” value [1] was 2 (4.7) n (%). The “Treatment-emergent SAE, Syncope” value [1] was 1 (2.3) n (%), the “Treatment-emergent SAE, Troponin I increased” value [1] was 1 (2.3) n (%) and the “Treatment-emergent SAE, Urosepsis” value [1] was 1 (2.3) n (%). For the same molecule, the “Treatment-emergent SAE, Vascular procedure complication” value [1] was 0 n (%), the “Anemia AE cases leading to discontinuation of study treatment” value (DB phase, macitentan group) was 1 case and the “Edema/fluid retention SAEs (in one patient: peripheral edema, localized edema, fluid overload)” value (DB phase, macitentan group) was 3 SAEs. For the same molecule, the “Patients who discontinued treatment due to AEs” value (DB phase, macitentan group) was 4 patients, the “Patients who had SAEs” value (DB phase, macitentan group) was 20.9% and the “Patients with hepatic disorder SAEs” value (DB phase, macitentan group) was 3 patients. The “Patients with anemia AEs” value [2] was 14.0%, the “Patients with hepatic disorder AEs” value [2] was 14.0% and the “Patients with edema and fluid retention AEs” value (DB phase, macitentan group (13 patients)) was 30.2%. The “Peripheral edema considered related to study treatment” value (DB phase, macitentan group, 4 patients) was 9.3%, the “Headache considered related to study treatment” value [3] was 16.3% and the “Patients with severe AEs” value [3] was 16.3%. The “Deaths considered related to macitentan treatment by the investigator” value (OL and OLE) was “None of the deaths were considered by the investigator to be related”, the Patients who died (OL phase) was 4 patients and the “Reason for death, Hepatocellular Carcinoma” value [4] was 1 (1.2) n (%). The “Reason for death, Pneumonia” value [4] was 1 (1.2) n (%), the “Reason for death, Pulmonary Arterial Hypertension” value [4] was 1 (1.2) n (%) and the “Reason for death, Subdural Haematoma” value [4] was 1 (1.2) n (%). The Total deaths [4] was 4 (4.8) n (%), the “Macitentan-treated patients who died” value (across OL phase (and after end of its follow-up) and ongoing OLE phase) was 7 patients and the “AE leading to premature discontinuation of study treatment, Alveolitis” value [5] was 1 (1.2) n(%). For the same molecule, the “AE leading to premature discontinuation of study treatment, Anaemia” value [5] was 2 (2.4) n(%), the “AE leading to premature discontinuation of study treatment, Ascites” value [5] was 1 (1.2) n(%) and the “AE leading to premature discontinuation of study treatment, Diarrhoea” value [5] was 1 (1.2) n(%). The “AE leading to premature discontinuation of study treatment, Hypersensitivity” value [5] was 1 (1.2) n(%), the “AE leading to premature discontinuation of study treatment, Liver function test increased” value [5] was 1 (1.2) n(%) and the “AE leading to premature discontinuation of study treatment, Oedema peripheral” value [5] was 2 (2.4) n(%). The “AE leading to premature discontinuation of study treatment, Pneumonia” value [5] was 1 (1.2) n(%), the “AE leading to premature discontinuation of study treatment, Pulmonary arterial hypertension” value [5] was 1 (1.2) n(%) and the “AEs leading to premature discontinuation of study treatment, Subjects with at least one AE” value [5] was 10 (11.9) n(%). The “AEs of special interest Anemia, Anaemia postoperative” value [5] was 1 (1.2) n (%), the “AEs of special interest Anemia, Haematocrit decreased” value [5] was 1 (1.2) n (%) and the “AEs of special interest Anemia, Subjects with atleast one AE” value [5] was 22 (26.2) n (%). The “AEs of special interest Edema and fluid retention, Fluid overload” value [5] was 1 (1.2) n (%), the “AEs of special interest Edema and fluid retention, Fluid retention” value [5] was 1 (1.2) n (%) and the “AEs of special interest Edema and fluid retention, Generalised oedema” value [5] was 1 (1.2) n (%). The “AEs of special interest Edema and fluid retention, Joint swelling” value [5] was 1 (1.2) n (%), the “AEs of special interest Edema and fluid retention, Localised oedema” value [5] was 1 (1.2) n (%) and the “AEs of special interest Edema and fluid retention, Peripheral swelling” value [5] was 2 (2.4) n (%). The “AEs of special interest Edema and fluid retention, Subjects with atleast one AE” value [5] was 26 (31.0) n (%), the “AEs of special interest Edema and fluid retention, Swelling” value [5] was 1 (1.2) n (%) and the “AEs of special interest Hepatic disorders, Ammonia increased” value [5] was 2 (2.4) n (%).
